What all share (assay): DTP human tumour cell line panel, 48 h
Experiment [1] relates to TK-10 renal.
Experiment [2] deals with SK-MEL-2 melanoma.
Experiment [3] concerns HOP-62 NSCLC.
For experiment [4], the system named is A498 renal.
The test system of experiment [5] is SN12C renal.
In experiment [6] the test system is HCC-2998 colon.
In experiment [7] the test system is KM12 colon.
Experiment [8] concerns RXF 393 renal.
Experiment [9] relates to MDA-MB-231 breast.

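Following 48 hours of exposure in 96-well plates, responses at five concentrations were used to interpolate endpoints linearly. GI50 is the concentration that inhibits growth by half. Definition used: TGI = concentration required for complete inhibition of growth.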

One may read the TGI as the concentration giving total growth inhibition. A lower TGI goes with more potent growth arrest. The term GI50 denotes the concentration giving 50% growth inhibition.

In the case of `CCOC(=O)NC(=O)c1cn(C2OC(COC(=O)CCCCCCCCC(=O)OCC3OC(n4cc(C(=O)NC(=O)OCC)c(=O)[nH]c4=O)C4OC(C)(C)OC34)C3OC(C)(C)OC32)c(=O)[nH]c1=O` (configuration not stated), the TGI in experiment [1], in [2], in experiment [3], in [4], in experiment [5] and in [6] was greater than 100 µM throughout. The TGI in [7] and in [8] was greater than 100 µM in each case.
With `Fc1ccc2c(c1)cc1ccc3cccc4ccc2c1c34`, the TGI in [1], in [2], in experiment [3], in experiment [4], in [5] and in [6] was greater than 100 µM throughout. Moreover, the total growth inhibition concentration (TGI) in experiment [7] and in [8] was greater than 100 µM in each case.
Take `COc1ccc2c(c1OC)C(C=C(c1ccccc1)c1ccccc1)CN(C)C2` (configuration not stated): the total growth inhibition concentration (TGI) in experiment [1] is 76.1 µM; in experiment [3], 62.2 µM; in experiment [4], 65 µM; in experiment [5] it was greater than 100 µM; in experiment [6], 67.1 µM; in [7], 48.9 µM.
For `CC(C)(C)C1CCC(=O)C(C(O)CC2CC(=O)N(c3ccccc3)C(=O)C2)C1` (configuration not stated), the TGI in experiment [1], in [3], in [4], in [5], in [6] and in [7] was greater than 100 µM in each case. Further, the TGI in experiment [8] was greater than 100 µM.
For `CCCCCN(CCCCC)C(=O)[C@H](CCC(=O)OCc1ccccc1)NC(=O)c1cc2ccccc2[nH]1`, the TGI in [2], in [3], in [4], in experiment [5], in experiment [6] and in experiment [7] was greater than 100 µM each time. In experiment [8], this molecule yielded a total growth inhibition concentration (TGI) greater than 100 µM.
Turning to `O=C(COC(=O)c1cccc2c(=O)c3ccccc3[nH]c12)Nc1ccc(S(=O)(=O)Nc2ncccn2)cc1`, the TGI in experiment [1], in [3], in experiment [4], in [5], in experiment [6] and in experiment [7] was greater than 100 µM in each case. This molecule showed a TGI in experiment [8] greater than 100 µM.
On to `O=C(CC1SC(=Nc2ccccc2Cl)NC1=O)Nc1ccc(Cl)cc1` (configuration not stated), for which the TGI in [1], in experiment [2], in experiment [3], in experiment [4], in [5] and in experiment [6] was greater than 100 µM each time. The concentration for total growth inhibition (TGI) in [7] and in experiment [8] was greater than 100 µM throughout.
For the molecule `[N-]=[N+]=NC1C2CC3CC(C2)CC1C3` (configuration not stated), the TGI in experiment [1], in experiment [2], in [3], in experiment [4], in experiment [5] and in [6] was greater than 100 µM in each case. Moreover, in experiment [7], the total growth inhibition concentration (TGI) is greater than 100 µM.
Regarding `CC1=CC2=C(C#N)C(=O)OC2(C)C(c2ccccc2)C1` (configuration not stated), the TGI in [1], in experiment [9], in [2], in [3], in [4] and in experiment [5] was greater than 100 µM each time. Also, the TGI in [7] was greater than 100 µM.
Take `COc1cc2ccc3c4cc(OC)c(OC(C)C)cc4c[n+](C)c3c2cc1OC`: the TGI was greater than 100 µM in experiment [1]; 55.6 µM in experiment [2]; greater than 100 µM in experiment [3]; greater than 100 µM in experiment [5]; greater than 100 µM in [6]; greater than 100 µM in experiment [7]. This molecule displayed a TGI in experiment [8] greater than 100 µM.
As to `COc1c(N2CCN(CN3C(=O)C(=O)c4ccccc43)C(C)C2)c(F)cc2c(=O)c(C(=O)O)cn(C3CC3)c12` (configuration not stated), the GI50 in experiment [1] was 6.85 µM; in [9], 53.5 µM; in experiment [2], greater than 100 µM; in [4] it was 33.6 µM; in experiment [5] it was 47.3 µM; in [7], 76.2 µM. Further, the GI50 in [8] is greater than 100 µM. The total growth inhibition concentration (TGI) was 68.7 µM in [1]; greater than 100 µM in experiment [9]; greater than 100 µM in experiment [2]; greater than 100 µM in experiment [4]; greater than 100 µM in [5]; greater than 100 µM in experiment [7]. In addition, in experiment [8], the TGI was greater than 100 µM.
For the molecule `CCC(C)(C)NS(=O)(=O)c1ccccc1`, the TGI in [1], in [2], in [3], in experiment [4], in [6] and in experiment [7] was greater than 100 µM in each case. In addition, the TGI in [8] is greater than 100 µM.
Turning to `CCN(CC)/[N+]([O-])=N/OCC(C)O` (configuration not stated), the TGI in experiment [1], in experiment [2], in experiment [3], in experiment [4], in experiment [5] and in experiment [6] was greater than 100 µM in each case. Besides, the TGI in experiment [7] and in experiment [8] was greater than 100 µM in each case.
With `Cn1cc2ccccc2c1-c1nc(F)nc(Nc2ccc(N)cc2)n1`, the TGI is greater than 100 µM in experiment [1]; 30.1 µM in [2]; 55.8 µM in experiment [3]; 21.6 µM in [4]; 47.4 µM in experiment [5]; 32.1 µM in experiment [6]. For the same molecule, the TGI in experiment [7] came to 41.9 µM; in [8], 45 µM.
Consider `COc1cc(OC)cc(C(=O)Cc2c(C(=O)c3ccccc3)c3ccccc3n2C(=O)c2ccccc2)c1`, for which the total growth inhibition concentration (TGI) was 98.3 µM in experiment [1]; 65.9 µM in experiment [2]; greater than 100 µM in [3]; 92.5 µM in [4]; greater than 100 µM in [5]; greater than 100 µM in [6]. The TGI in experiment [7] and in [8] was greater than 100 µM in each case.
`CN=C(N)NC`: the TGI in [1], in [2], in [3], in [4], in [5] and in experiment [6] was greater than 100 µM in each case. The TGI in [7] and in [8] was greater than 100 µM in each case.
With `CC(=O)OC1(C#N)CC2OC1C1N=NN(C(=O)OC(C)(C)C)C21` (configuration not stated), the concentration for total growth inhibition (TGI) in experiment [1], in experiment [2], in [3], in experiment [4], in [5] and in experiment [6] was greater than 100 µM in each case. Besides, the figures for the TGI in [7] and in [8] were greater than 100 µM and greater than 31.6 µM, respectively.
Consider `CC(C)c1cc(C(=O)[O-])c(O)c(C(C)C)c1.CC(C)c1cc(C(=O)[O-])c(O)c(C(C)C)c1.CC(C)c1cc(C(=O)[O-])c(O)c(C(C)C)c1.CC(C)c1cc(C(=O)[O-])c(O)c(C(C)C)c1.CC(C)c1cc(C(=O)[O-])c(O)c(C(C)C)c1.CC(C)c1cc(C(=O)[O-])c(O)c(C(C)C)c1.[Cu+2].[Mn+2].[Mn+2]`, for which the GI50 was 39.5 µM in experiment [1]; 20.4 µM in experiment [2]; 21 µM in experiment [3]; 34.1 µM in experiment [4]; 20.9 µM in [5]; 18.2 µM in experiment [7]. Besides, the TGI in experiment [1] came out at 91.7 µM; in experiment [2], 42.6 µM; in experiment [3], 42 µM; in [4], 82.2 µM; in experiment [5] it was 49 µM; in [7], 43.4 µM.
Consider `CC(=O)Oc1cc(Cl)c(OC(C)=O)c2c(OC(C)=O)c(C)c(O[Si](C)(C)C(C)(C)C)cc12`, for which the TGI was 17.6 µM in [1]; 42.6 µM in [2]; 34 µM in experiment [3]; 4.77 µM in experiment [4]; 23.1 µM in [5]; 15.5 µM in [6]. The TGI in experiment [7] came out at 26.1 µM; in [8], 11.2 µM.
Consider `COC(=O)c1ccc(/C=C/S(=O)(=O)c2ccccc2)cc1`, for which the TGI in experiment [1], in [2], in experiment [3], in [4], in experiment [5] and in experiment [7] was greater than 100 µM throughout. In addition, the TGI in [8] was greater than 100 µM.
For the molecule `COC(=O)C1=C(O)c2cc3c(cc2[C@H](c2cc(OC)c(OC)c(OC)c2)C1)OCO3`, the TGI in [1] was greater than 100 µM; in [3], greater than 100 µM; in experiment [4], 61.7 µM; in experiment [5] it was greater than 100 µM; in [7], 54.3 µM; in experiment [8], greater than 100 µM.
For `COc1ccc(/C=C2\CCc3ccccc3C2=O)cc1OC`, the TGI is greater than 100 µM in experiment [1]; 83.9 µM in [2]; greater than 100 µM in [3]; greater than 100 µM in [4]; 95.7 µM in experiment [5]; greater than 100 µM in [6]. For the same molecule, the TGI in [7] was found to be 39.5 µM.
On to `C/C=C(\C)C(=O)N1c2ccccc2CC1c1c(C)[nH]c2ccccc12` (configuration not stated), for which the TGI is greater than 100 µM in experiment [1]; 69.6 µM in experiment [2]; greater than 100 µM in [3]; greater than 100 µM in [4]; greater than 100 µM in [5]; greater than 100 µM in [6]. Also, the concentration for total growth inhibition (TGI) in experiment [7] and in experiment [8] was greater than 100 µM in each case.
Consider `N/C(=N\N=C\c1ccc(O)c(O)c1)NO`, for which the TGI in [1], in experiment [2], in experiment [3], in [4], in experiment [5] and in [6] was greater than 100 µM in each case. Further, the TGI in experiment [7] and in experiment [8] was greater than 100 µM each time.
`C/C(=N\NS(=O)(=O)c1c(C)cc(C)cc1C)c1ccc[n+]([O-])n1`: the TGI was greater than 100 µM in experiment [3]; 86.6 µM in experiment [4]; 29.2 µM in experiment [5]; greater than 100 µM in [6]; greater than 100 µM in [7].
On to `COc1c(Cl)[c]([Hg][O]C(C)=O)c(NCC(C)=O)c(OC)[c]1[Hg][O]C(C)=O`, for which the GI50 was 14.3 µM in experiment [1]; 11.9 µM in experiment [2]; 22.3 µM in experiment [3]; 26.7 µM in experiment [4]; 20.8 µM in experiment [5]; 16.9 µM in experiment [6]. In addition, the figures for the GI50 in experiment [7] and in [8] were 31.7 µM and 14.4 µM, respectively. The TGI in experiment [1] was 27.7 µM; in experiment [2], 24.9 µM; in [3], 37.3 µM; in [4] it was 71 µM; in experiment [5], 36.3 µM; in [6] it was 39.1 µM. Moreover, the TGI in experiment [7] was greater than 100 µM; in [8] it was 30.4 µM.
Consider `CCOc1ncnc2ccc(Cl)c(I)c12`, for which the TGI in [1], in experiment [2], in [3], in experiment [4], in experiment [5] and in experiment [6] was greater than 100 µM each time. The TGI in experiment [7] is greater than 100 µM; in experiment [8], 60.7 µM.
For the molecule `OCCCCCNc1ccnc2cc(Cl)ccc12`, the TGI in experiment [2], in [3], in experiment [4], in experiment [5], in [6] and in experiment [7] was greater than 100 µM throughout. Further, the concentration for total growth inhibition (TGI) in experiment [8] was greater than 100 µM.
For `Cc1nc(-n2nc(-c3ccccc3)cc2-c2ccccc2)sc1C(=O)/C=C/c1ccc(Cl)cc1`, the TGI is greater than 100 µM in experiment [1]; 35.7 µM in [2]; 34.4 µM in experiment [3]; 83.3 µM in [4]; greater than 100 µM in [5]; 29.9 µM in experiment [6]. For the same molecule, the values for the TGI in [7] and in experiment [8] were 25.6 µM and 28.1 µM, respectively.
Turning to `CCOC(=O)c1csc(-c2nc(CCNC(=O)c3ccccc3)sc2Cl)n1`, the TGI in experiment [1], in experiment [3], in experiment [4], in experiment [5], in experiment [6] and in [7] was greater than 100 µM each time. Further, in experiment [8], the TGI is greater than 100 µM.
With `CC(C)C1NC(=O)[C@H](C)OC(=O)[C@@H](C(C)C)NC(=O)[C@@H](C)OC(=O)C(C(C)C)NC(=O)[C@H](C)OC1=O` (some centres not stated), the TGI in experiment [1], in [2], in [3], in [4], in experiment [5] and in experiment [6] was greater than 100 µM each time. This molecule showed a TGI in [7] greater than 100 µM.

(Values after PubChem BioAssay (NCI).)
